# Source: US10329270B2, “Heteroaryl compounds as BTK inhibitors and uses thereof” (Merck Patent GmbH, priority 2013, dated 2019)
# pIC50: −log10 of the molar value. Read-outs that look alike come from different tables or passages of the source.
# Target: T1, full-length human BTK (Homo sapiens, UniProt Q06187)
# T1 construct: 2.5× stocks of full-length human BTK (08-080); purchased CarnaBio USA, Inc., Natick, Mass; 08-080
# Test: Assay A: BTK IC50 Enzyme Assay (microfluidic off-chip mobility shift kinase assay)
# Assay type: biochemical
# How it was run: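 Off-chip microfluidic mobility shift assay with full-length human BTK; phosphorylated and unphosphorylated peptide substrate were separated by charge/mass on a LabChip 3000.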
# [1] = full-length human BTK, kinKDR peptide substrate, incubated 90 min at 27 C, read-out: Assay A (Time Dependent BTK Enzyme Assay IC50)
# T1 sequence (Q06187 whole entry): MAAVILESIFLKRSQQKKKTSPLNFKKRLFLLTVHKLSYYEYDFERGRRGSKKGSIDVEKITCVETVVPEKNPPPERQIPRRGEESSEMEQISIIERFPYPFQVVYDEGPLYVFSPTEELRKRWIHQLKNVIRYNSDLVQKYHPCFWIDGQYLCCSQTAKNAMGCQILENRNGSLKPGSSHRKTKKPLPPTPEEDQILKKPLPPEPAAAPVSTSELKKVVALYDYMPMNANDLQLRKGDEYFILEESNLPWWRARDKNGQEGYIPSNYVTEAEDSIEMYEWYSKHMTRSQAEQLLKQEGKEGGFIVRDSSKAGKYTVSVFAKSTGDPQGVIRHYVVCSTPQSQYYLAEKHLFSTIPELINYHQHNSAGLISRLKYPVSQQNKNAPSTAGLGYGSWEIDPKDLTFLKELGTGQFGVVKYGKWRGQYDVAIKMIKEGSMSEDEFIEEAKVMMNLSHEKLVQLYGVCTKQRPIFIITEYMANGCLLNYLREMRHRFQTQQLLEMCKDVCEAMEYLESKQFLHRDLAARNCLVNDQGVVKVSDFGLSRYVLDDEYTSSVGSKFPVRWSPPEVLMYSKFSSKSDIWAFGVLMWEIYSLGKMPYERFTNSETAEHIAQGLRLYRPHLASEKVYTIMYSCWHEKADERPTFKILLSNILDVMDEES
pIC50 [1],pIC50,Structure (SMILES)
6.00 to 7.00,–,"C=CC(=O)N[C@H]1CCN(c2nc(Nc3ccc(N4CCC(F)(F)CC4)cc3)c(F)cc2C(N)=O)C1 [Compound 186, 2-((S)-3-Acryloylamino-pyrrolidin-1-yl)-6-[4-(4,4-difluoro-piperidin-1-yl)-phenylamino]-5-fluoro-nicotinamide formic acid]"
6.00 to 7.00,–,"C=CC(=O)N1CC[C@@H](N(C)c2ccc(C(N)=O)c(Oc3ccc(Oc4ccccc4)cc3)n2)C1 [Compound 187, 6-[((R)-1-Acryloyl-pyrrolidin-3-yl)-methyl-amino]-2-(4-phenoxy-phenoxy)-nicotinamide]"
5.30 to 6.00,–,"N#C/C(=C\C1CC1)C(=O)N1C[C@@H]2C[C@H]1CN2c1ccc(C(N)=O)c(Oc2ccc(Oc3ccccc3)cc2)n1 [Compound 190, 6-((1S,4S)-5-((E)-2-cyano-3-cyclopropylacryloyl)-2,5-diazabicyclo[2.2.1]heptan-2-yl)-2-(4-phenoxyphenoxy)nicotinamide]"
6.00 to 7.00,–,"C=CC(=O)N[C@H]1CCN(c2ncc(C(N)=O)c(Oc3ccc(Oc4ccccc4)cc3)n2)C1 [Compound 192, (S)-2-(3-acrylamidopyrrolidin-1-yl)-4-(4-phenoxyphenoxy)pyrimidine-5-carboxamide]"
–,6.00 to 7.00,"C=CC(=O)N1CCC(F)(CNc2ncc(C(N)=O)c(Oc3ccc(Oc4ccccc4)cc3)n2)CC1 [Compound 194, 2-(((1-acryloyl-4-fluoropiperidin-4-yl)methyl)amino)-4-(4-phenoxyphenoxy)pyrimidine-5-carboxamide]"
5.30 to 6.00,–,"C=CC(=O)NC1CC2(C1)CC(Nc1ncc(C(N)=O)c(Oc3ccc(Oc4ccccc4)cc3)n1)C2 (centres unmarked) [Compound 195, 2-((6-acrylamidospiro[3.3]heptan-2-yl)amino)-4-(4-phenoxyphenoxy)pyrimidine-5-carboxamide]"
6.00 to 7.00,–,"C=CC(=O)NC1CCN(c2cnc(Oc3ccc(Oc4ccccc4)cc3)c(C(N)=O)c2)C1 (centres unmarked) [Compound 196, 5-(3-Acryloylamino-pyrrolidin-1-yl)-2-(4-phenoxy-phenoxy)-nicotinamide]"
6.00 to 7.00,–,C=CC(=O)NC1CCN(c2cnc(Oc3ccc(Oc4ccccc4)cc3)c(C(N)=O)c2)CC1 [Compound 197]
6.00 to 7.00,–,C=CC(=O)NC1CCCN(c2cnc(Oc3ccc(Oc4ccccc4)cc3)c(C(N)=O)c2)C1 (centres unmarked) [Compound 198]
< 5.30,–,"C/C=C/C(=O)NC1CCN(c2cnc(Oc3ccc(Oc4ccccc4)cc3)c(C(N)=O)c2)C1 (centres unmarked) [Compound 199, 5-[3-((E)-But-2-enoylamino)-pyrrolidin-1-yl]-2-(4-phenoxy-phenoxy)-nicotinamide]"
< 5.30,–,"C/C=C/C(=O)NC1CCN(c2cnc(Oc3ccc(Oc4ccccc4)cc3)c(C(N)=O)c2)CC1 [Compound 200, 4-((E)-But-2-enoylamino)-6′-(4-phenoxy-phenoxy)-3,4,5,6-tetrahydro-2H-[1,3′]bipyridinyl-5′-carboxylic acid amide]"
> 7.00,–,"C=CC(=O)N1CCC(Nc2cnc(Oc3ccc(Oc4ccccc4)cc3)c(C(N)=O)c2)C1 (centres unmarked) [Compound 201, 5-(1-Acryloyl-pyrrolidin-3-ylamino)-2-(4-phenoxy-phenoxy)-nicotinamide]"
5.30 to 6.00,–,"C/C=C/C(=O)N1CCC(Nc2cnc(Oc3ccc(Oc4ccccc4)cc3)c(C(N)=O)c2)C1 (centres unmarked) [Compound 202, 5-[1-((E)-But-2-enoyl)-pyrrolidin-3-ylamino]-2-(4-phenoxy-phenoxy)-nicotinamide]"
6.00 to 7.00,–,"C=CC(=O)N1C[C@@H]2CCN(c3ncc(C(N)=O)c(Oc4ccc(Oc5ccccc5)cc4)n3)[C@@H]2C1 [Compound 203, 2-((3aS,6aS)-5-acryloylhexahydropyrrolo[3,4-b]pyrrol-1(2H)-yl)-4-(4-phenoxyphenoxy)pyrimidine-5-carboxamide]"
5.30 to 6.00,–,"C=CC(=O)NC1CCCN(c2ncc(C(N)=O)c(Oc3ccc(Oc4ccccc4)cc3)n2)C1 (centres unmarked) [Compound 204, 2-(3-acrylamidopiperidin-1-yl)-4-(4-phenoxyphenoxy)pyrimidine-5-carboxamide]"
> 7.00,–,"C=CC(=O)N[C@@H]1CCCN(c2ccc(C(N)=O)c(Nc3ccc(C(=O)N4CCOCC4)cc3)n2)C1 [Compound 205, (R)-3-Acryloylamino-6′-[4-(morpholine-4-carbonyl)-phenylamino]-3,4,5,6-tetrahydro-2H-[1,2′]bipyridinyl-5′-carboxylic acid amide]"
6.00 to 7.00,–,"C=CC(=O)N1CCCN(c2ncc(C(N)=O)c(Oc3ccc(Oc4ccccc4)cc3)n2)CC1 [Compound 206, 2-(4-acryloyl-1,4-diazepan-1-yl)-4-(4-phenoxyphenoxy)pyrimidine-5-carboxamide]"

pIC50 [1],pIC50,Structure (SMILES)
6.00 to 7.00,–,"C=CC(=O)N1CCC(CNc2ncc(C(N)=O)c(Oc3ccc(Oc4ccccc4)cc3)n2)CC1 [Compound 209, 2-(((1-acryloylpiperidin-4-yl)methyl)amino)-4-(4-phenoxyphenoxy)pyrimidine-5-carboxamide]"
5.30 to 6.00,–,"N#C/C(=C\C1CC1)C(=O)N1C[C@@H]2C[C@H]1CN2c1ncc(C(N)=O)c(Oc2ccc(Oc3ccccc3)cc2)n1 [Compound 210, 2-((1S,4S)-5-((E)-2-cyano-3-cyclopropylacryloyl)-2,5-diazabicyclo[2.2.1]heptan-2-yl)-4-(4-phenoxyphenoxy)pyrimidine-5-carboxamide]"
5.30 to 6.00,–,"C/C=C(\C#N)C(=O)N1C[C@@H]2C[C@H]1CN2c1ncc(C(N)=O)c(Oc2ccc(Oc3ccccc3)cc2)n1 [Compound 211, 2-((1S,4S)-5-((E)-2-cyanobut-2-enoyl)-2,5-diazabicyclo[2.2.1]heptan-2-yl)-4-(4-phenoxyphenoxy)pyrimidine-5-carboxamide]"
6.00 to 7.00,–,"C=CC(=O)NC1CCN(c2cnc(Oc3ccc(Oc4cccc(F)c4)cc3)c(C(N)=O)c2)CC1 [Compound 212, 4-Acryloylamino-6′-[4-(3-fluoro-phenoxy)-phenoxy]-3,4,5,6-tetrahydro-2H-[1,3′]bipyridinyl-5′-carboxylic acid amide]"
< 5.30,–,"C/C=C/C(=O)NC1CCCN(c2cnc(Oc3ccc(Oc4ccccc4)cc3)c(C(N)=O)c2)C1 (centres unmarked) [Compound 213, 3-((E)-But-2-enoylamino)-6′-(4-phenoxy-phenoxy)-3,4,5,6-tetrahydro-2H-[1,3′]bipyridinyl-5′-carboxylic acid amide]"
< 5.30,–,"C/C=C/C(=O)NC1CCN(c2cnc(Oc3ccc(Oc4cccc(F)c4)cc3)c(C(N)=O)c2)CC1 [Compound 214, 4-((E)-But-2-enoylamino)-6′-[4-(3-fluoro-phenoxy)-phenoxy]-3,4,5,6-tetrahydro-2H-[1,3′]bipyridinyl-5′-carboxylic acid amide]"
< 5.30,–,"C/C=C/C(=O)N1CCCC(Nc2cnc(Oc3ccc(Oc4ccccc4)cc3)c(C(N)=O)c2)C1 (centres unmarked) [Compound 215, 5-[1-((E)-But-2-enoyl)-piperidin-3-ylamino]-2-(4-phenoxy-phenoxy)-nicotinamide]"
6.00 to 7.00,–,"C=CC(=O)N1CC2CN(c3cnc(Oc4ccc(Oc5ccccc5)cc4)c(C(N)=O)c3)CC2C1 (centres unmarked) [Compound 216, 5-(5-Acryloyl-hexahydro-pyrrolo[3,4-c]pyrrol-2-yl)-2-(4-phenoxy-phenoxy)-nicotinamide]"
< 5.30,–,"C/C=C/C(=O)N1CC2CN(c3cnc(Oc4ccc(Oc5ccccc5)cc4)c(C(N)=O)c3)CC2C1 (centres unmarked) [Compound 217, 5-[5-((E)-But-2-enoyl)-hexahydro-pyrrolo[3,4-c]pyrrol-2-yl]-2-(4-phenoxy-phenoxy)-nicotinamide]"
> 7.00,–,"C=CC(=O)N1CCN(c2ncc(C(N)=O)c(Oc3ccc(Oc4ccccc4)cc3)n2)C(C)C1 (centres unmarked) [Compound 218, 2-(4-acryloyl-2-methylpiperazin-1-yl)-4-(4-phenoxyphenoxy)pyrimidine-5-carboxamide]"
6.00 to 7.00,–,"C=CC(=O)NC1CCN(c2cnc(Oc3ccc(Oc4cccc(F)c4)cc3)c(C(N)=O)c2)C1 (centres unmarked) [Compound 219, 5-(3-Acryloylamino-pyrrolidin-1-yl)-2-[4-(3-fluoro-phenoxy)-phenoxy]-nicotinamide]"
5.30 to 6.00,–,"C=CC(=O)NC1CCCN(c2cnc(Oc3ccc(Oc4cccc(F)c4)cc3)c(C(N)=O)c2)C1 (centres unmarked) [Compound 220, 3-Acryloylamino-6′-[4-(3-fluoro-phenoxy)-phenoxy]-3,4,5,6-tetrahydro-2H-[1,3′]bipyridinyl-5′-carboxylic acid amide]"
< 5.30,–,"C/C=C/C(=O)NC1CCN(c2cnc(Oc3ccc(Oc4cccc(F)c4)cc3)c(C(N)=O)c2)C1 (centres unmarked) [Compound 221, 5-[3-((E)-But-2-enoylamino)-pyrrolidin-1-yl]-2-[4-(3-fluoro-phenoxy)-phenoxy]-nicotinamide]"
< 5.30,–,"C/C=C/C(=O)NC1CCCN(c2cnc(Oc3ccc(Oc4cccc(F)c4)cc3)c(C(N)=O)c2)C1 (centres unmarked) [Compound 222, 3-((E)-But-2-enoylamino)-6′-[4-(3-fluoro-phenoxy)-phenoxy]-3,4,5,6-tetrahydro-2H-[1,3′]bipyridinyl-5′-carboxylic acid amide]"
6.00 to 7.00,–,"C=CC(=O)N1CCCC(Nc2cnc(Oc3ccc(Oc4ccccc4)cc3)c(C(N)=O)c2)C1 (centres unmarked) [Compound 223, 5-(1-Acryloyl-piperidin-3-ylamino)-2-(4-phenoxy-phenoxy)-nicotinamide]"
6.00 to 7.00,–,"C=CC(=O)N1CCC2(CCN(c3cnc(Oc4ccc(Oc5ccccc5)cc4)c(C(N)=O)c3)C2)C1 (centres unmarked) [Compound 224, 5-(7-Acryloyl-2,7-diaza-spiro[4.4]non-2-yl)-2-(4-phenoxy-phenoxy)-nicotinamide]"

Structure (SMILES),pIC50 [1],pIC50
"C=CC(=O)N1C2CC1CN(c1ncc(C(N)=O)c(Oc3ccc(Oc4ccccc4)cc3)n1)C2 [Compound 193, 2-(6-acryloyl-3,6-diazabicyclo[3.1.1]heptan-3-yl)-4-(4-phenoxyphenoxy)pyrimidine-5-carboxamide]",6.00 to 7.00,–
"C=CC(=O)N1C[C@@H]2CCC[C@H]1CN(c1ncc(C(N)=O)c(Oc3ccc(Oc4ccccc4)cc3)n1)C2 [Compound 208, 2-((1 S,5R)-9-acryloyl-3,9-diazabicyclo[3.3.2]decan-3-yl)-4-(4-phenoxyphenoxy)pyrimidine-5-carboxamide]",6.00 to 7.00,–
